From ChEMBL document CHEMBL4152237, “Identification of novel β-lactams and pyrrolidinone derivatives as selective Histamine-3 receptor (H3R) modulators as possible anti-obesity agents” (Eur J Med Chem, 2018) come the findings set out here.

Calls of active or inactive are those of the source. How the calls were made is not given here.

Assay [1] deals with T1, 5-hydroxytryptamine receptor 2C (Homo sapiens) (UniProt P28335).
T1 sequence (whole entry): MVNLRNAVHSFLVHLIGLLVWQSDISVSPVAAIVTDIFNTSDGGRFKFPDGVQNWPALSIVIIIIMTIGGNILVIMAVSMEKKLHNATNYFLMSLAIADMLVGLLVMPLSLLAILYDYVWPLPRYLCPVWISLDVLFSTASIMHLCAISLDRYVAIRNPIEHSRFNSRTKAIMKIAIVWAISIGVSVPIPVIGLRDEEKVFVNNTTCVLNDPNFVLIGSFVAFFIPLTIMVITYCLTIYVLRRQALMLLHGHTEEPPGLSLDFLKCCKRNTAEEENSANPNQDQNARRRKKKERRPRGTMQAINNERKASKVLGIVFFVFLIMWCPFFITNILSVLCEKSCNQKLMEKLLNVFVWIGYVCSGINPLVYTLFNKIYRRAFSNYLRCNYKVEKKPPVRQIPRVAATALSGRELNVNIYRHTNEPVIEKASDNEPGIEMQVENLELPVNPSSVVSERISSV
Put plainly: Agonist activity at human 5-HT2C expressed in HEK293 cells harboring luc2P/NFAT-RE plasmid at 10 uM after 6 to 8 hrs by luciferase reporter gene assay. Format: functional, cell-based. (A reporter such as luciferase makes a cellular process visible.)

Assay [2] deals with Histamine H3 receptor (Homo sapiens, UniProt Q9Y5N1). Put plainly: Agonist activity at human H3R expressed in HEK293 cells harboring glosensor-22F cAMP plasmid DNA assessed as inhibition of forskolin-stimulated cAMP accumulation at 10 uM preincubated with cells followed by forskolin addition measured after 10 mins by luminescence assay relative to control. The format is functional, cell-based. For orientation: cAMP levels reflect the balance of adenylyl cyclase and phosphodiesterase activity.
Histamine H3 receptor, sequence (Q9Y5N1 whole entry): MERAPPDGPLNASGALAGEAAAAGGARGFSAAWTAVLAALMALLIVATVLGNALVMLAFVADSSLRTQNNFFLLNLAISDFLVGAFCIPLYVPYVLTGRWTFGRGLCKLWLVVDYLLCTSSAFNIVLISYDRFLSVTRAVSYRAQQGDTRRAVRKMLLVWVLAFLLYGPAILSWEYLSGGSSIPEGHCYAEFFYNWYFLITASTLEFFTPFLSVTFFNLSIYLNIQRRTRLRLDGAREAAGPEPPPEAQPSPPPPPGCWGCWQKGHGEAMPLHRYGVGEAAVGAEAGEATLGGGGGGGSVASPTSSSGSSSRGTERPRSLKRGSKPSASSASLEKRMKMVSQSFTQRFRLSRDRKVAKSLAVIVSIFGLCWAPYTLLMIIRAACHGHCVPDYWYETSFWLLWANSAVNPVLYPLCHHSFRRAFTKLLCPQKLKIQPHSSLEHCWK

Turning to `O=C1C=CC2(C=C1)C(c1ccccc1)=C(I)C(=O)N2C(C(=O)NC1CCCCC1)c1ccc(Cl)cc1` (configuration not stated), the result in assay [1] was inactive. Further, in assay [2], the inhibition entry is “inactive”.
On to `CC(C)(C)NC(=O)C(c1ccccc1[N+](=O)O)N1C(=O)C(I)=C(c2ccccc2)C12C=CC(=O)C=C2` (configuration not stated), for which the result in assay [1] was inactive. Also, in assay [2], the inhibition result is “inactive”.
As for `COc1ccc(C(C(=O)NC2CCCCC2)N2C(=O)C=C(c3ccccc3)C23C=CC(=O)C=C3)cc1C` (configuration not stated), the result in assay [1] was inactive. In assay [2], the inhibition entry is “inactive”.
For the compound `Cc1cc(C)cc([C@@H]2C(=O)N[C@@H]3CC(=O)C=C[C@@]34C(c3ccccc3)=CC(=O)N24)c1`, the result in assay [1] was inactive. In addition, in assay [2], the inhibition result was “inactive”.
With `O=C1C=C[C@]23C(c4ccccc4)=CC(=O)N2[C@H](c2cccc(OC(F)(F)F)c2)C(=O)N[C@@H]3C1`, in assay [1], the result was inactive. Also, the inhibition entry in assay [2] is “inactive”.
On to `O=C1C=CC2(C=C1)C(c1ccccc1)=C(I)C(=O)N2C(C(=O)NC1CCCCC1)c1ccccc1Br` (configuration not stated), for which the result in assay [1] was inactive. Also, the inhibition result in assay [2] was “inactive”.
Consider `COc1ccccc1[C@@H]1C(=O)N[C@@H]2CC(=O)C=C[C@@]23C(c2ccccc2)=CC(=O)N13`, for which, in assay [1], the outcome was inactive. For the same compound, in assay [2], the inhibition entry is “inactive”.
Turning to `COC1=CC2(C=C(OC)C1=O)C(c1ccccc1)=C(c1ccc(OC)c(OC)c1OC)C(=O)N2C(C(=O)NC1CCCCC1)c1cc(OC)c(OC)c(OC)c1` (configuration not stated), the result in assay [1] was inactive. Besides, the inhibition entry in assay [2] was “inactive”.
In the case of `Cc1ccc(C(C(=O)NC(C)(C)C)N2C(=O)C(I)=C(c3ccccc3)C23C=CC(=O)C=C3)cc1` (configuration not stated), the result in assay [1] was inactive. Moreover, the inhibition entry in assay [2] is “inactive”.
Take `COC1=CC2(C=C(OC)C1=O)C(c1ccccc1)=C(c1cccc3c1OCO3)C(=O)N2C(C(=O)NC1CCCCC1)c1cc(OC)c(OC)c(OC)c1` (configuration not stated): in assay [1], the result was inactive. For the same compound, the inhibition result in assay [2] is “inactive”.
As for `O=C1C=C[C@]23C(c4ccccc4)=CC(=O)N2[C@H](c2cccc([N+](=O)[O-])c2)C(=O)N[C@@H]3C1`, the result in assay [1] was inactive. Moreover, the inhibition result in assay [2] was “inactive”.
On to `O=C1C=C[C@]23C(c4ccccc4)=CC(=O)N2[C@H](c2ccc(Cl)c(F)c2)C(=O)N[C@@H]3C1`, for which the result in assay [1] was inactive. Moreover, the inhibition entry in assay [2] is “inactive”.
For `COc1ccc(N2C(=O)C(=Cc3ccccc3)C2(C(=O)NC(C)(C)C)c2ccc(OC)cc2)cc1` (configuration not stated), the result in assay [1] was inactive. In addition, the inhibition entry in assay [2] is “inactive”.
As to `COc1ccc(C2(Nc3cc(OC)c(OC)c(OC)c3)C(=O)N(C(C)(C)C)C(=O)/C2=C/c2ccccc2)cc1` (configuration not stated), in assay [1], the outcome was inactive. Also, the inhibition result in assay [2] is “inactive”.
On to `Cc1cc(C(C(=O)NC(C)(C)C)N2C(=O)C(I)=C(c3ccccc3)C23C=CC(=O)C=C3)cc(C)c1O` (configuration not stated), for which the outcome in assay [1] was inactive. In addition, the inhibition result in assay [2] was “inactive”.
In the case of `COc1ccc(C(C(=O)NC2CCCCC2)N2C(=O)C(I)=C(c3ccccc3)C23C=CC(=O)C=C3)cc1C` (configuration not stated), the result in assay [1] was inactive. Moreover, the inhibition result in assay [2] was “inactive”.
Regarding `COC1=CC2(C=C(OC)C1=O)C(c1ccccc1)=C(I)C(=O)N2C(C(=O)NC1CCCCC1)c1cc(OC)c(OC)c(OC)c1` (configuration not stated), in assay [1], the result was inactive. Further, the inhibition result in assay [2] was “inactive”.
`COc1ccc(NC2(c3cccc(Cl)c3)C(=O)N(C(C)(C)C)C(=O)/C2=C/c2ccccc2)cc1` (configuration not stated): the outcome in assay [1] was inactive. Moreover, the inhibition result in assay [2] is “inactive”.
For `COC1=CC2(C=C(OC)C1=O)C(c1ccccc1)=C(I)C(=O)N2C(C(=O)NC1CCCCC1)c1ccc(OC)c(OC)c1OC` (configuration not stated), in assay [1], the outcome was inactive. Besides, the inhibition result in assay [2] is “inactive”.
With `COc1cc(OC)c(C(C(=O)NC2CCCCC2)N2C(=O)C(I)=C(c3ccccc3)C23C=CC(=O)C=C3)cc1OC` (configuration not stated), in assay [1], the outcome was inactive. For the same compound, the inhibition result in assay [2] is “inactive”.
Regarding `COc1ccc(N2C(=O)/C(=C\c3ccccc3)C2(C(=O)NC(C)(C)C)c2ccc(Br)cc2)cc1` (configuration not stated), the result in assay [1] was inactive. For the same compound, the inhibition result in assay [2] is “inactive”.
For the compound `CN(C)c1ccc([C@@H]2C(=O)N[C@@H]3CC(=O)C=C[C@@]34C(c3ccccc3)=CC(=O)N24)cc1`, the outcome in assay [1] was inactive. Moreover, the inhibition entry in assay [2] was “inactive”.
Consider `CC(C)(C)NC(=O)C(c1ccc(C#N)cc1)N1C(=O)C(I)=C(c2ccccc2)C12C=CC(=O)C=C2` (configuration not stated), for which the result in assay [1] was inactive. Further, the inhibition result in assay [2] was “inactive”.
As to `COc1ccc(N2C(=O)C(=Cc3ccccc3)C2(C(=O)NC(C)(C)C)c2ccccc2)cc1` (configuration not stated), in assay [1], the result was inactive. Moreover, the inhibition result in assay [2] is “inactive”.
With `COc1ccc(N2C(=O)C(=Cc3ccccc3)C2(C(=O)NC2CCCCC2)c2ccccc2)cc1OC` (configuration not stated), the outcome in assay [1] was inactive. Further, the inhibition entry in assay [2] is “inactive”.
`COc1ccc(NC2(c3ccc(Br)cc3)C(=O)N(C3CCCCC3)C(=O)/C2=C/c2ccccc2)cc1OC` (configuration not stated): in assay [1], the result was inactive. Moreover, in assay [2], the inhibition result was “inactive”.
Turning to `COc1ccc(NC2(c3ccccc3)C(=O)N(C3CCCCC3)C(=O)/C2=C/c2ccccc2)cc1OC` (configuration not stated), the outcome in assay [1] was inactive. The inhibition result in assay [2] was “inactive”.
With `COc1cc(C(C(=O)NC2CCCCC2)N2C(=O)C(I)=C(c3ccccc3)C23C=CC(=O)C=C3)cc(OC)c1OC` (configuration not stated), in assay [1], the outcome was inactive. The inhibition entry in assay [2] was “inactive”.
Consider `O=C1C=C[C@]23C(c4ccccc4)=CC(=O)N2[C@H](c2ccccc2)C(=O)N[C@@H]3C1`, for which the outcome in assay [1] was inactive. Besides, the inhibition entry in assay [2] is “inactive”.
Turning to `CC(C)(C)NC(=O)C(c1ccccc1Br)N1C(=O)C(I)=C(c2ccccc2)C12C=CC(=O)C=C2` (configuration not stated), the result in assay [1] was inactive. Besides, in assay [2], the inhibition result is “inactive”.
Take `O=C1C=C[C@]23C(c4ccccc4)=CC(=O)N2[C@H](c2cc(F)c(F)c(F)c2)C(=O)N[C@@H]3C1`: in assay [1], the outcome was inactive. For the same compound, the inhibition entry in assay [2] was “inactive”.
As to `COC1=CC2(C=C(OC)C1=O)C(c1ccccc1)=C(I)C(=O)N2C(C(=O)NC1CCCCC1)c1cccc([N+](=O)[O-])c1` (configuration not stated), in assay [1], the result was inactive. Also, in assay [2], the inhibition result is “inactive”.
As for `O=C1C=C[C@]23C(c4ccccc4)=CC(=O)N2[C@H](c2ccc(F)cc2)C(=O)N[C@@H]3C1`, the result in assay [1] was inactive. The inhibition entry in assay [2] was “inactive”.
In the case of `COc1cc(N2C(=O)C(=Cc3ccccc3)C2(C(=O)NC(C)(C)C)c2ccc(Br)cc2)cc(OC)c1OC` (configuration not stated), the outcome in assay [1] was inactive. In addition, the inhibition entry in assay [2] was “inactive”.
As for `COc1ccc(N2C(=O)/C(=C\c3ccccc3)C2(C(=O)NC(C)(C)C)c2ccc(F)cc2)cc1` (configuration not stated), the outcome in assay [1] was inactive. The inhibition entry in assay [2] was “inactive”.
In the case of `COc1ccc(NC2(c3cc(F)c(F)c(F)c3)C(=O)N(C(C)(C)C)C(=O)/C2=C/c2ccccc2)cc1` (configuration not stated), in assay [1], the result was inactive. Further, the inhibition result in assay [2] is “inactive”.
With `CC(C)(C)NC(=O)C(c1cccc(Cl)c1)N1C(=O)C(I)=C(c2ccccc2)C12C=CC(=O)C=C2` (configuration not stated), the outcome in assay [1] was inactive. In addition, in assay [2], the inhibition result is “inactive”.
For the compound `COc1ccc(NC2(c3ccc(Cl)c(F)c3)C(=O)N(C3CCCCC3)C(=O)/C2=C/c2ccccc2)cc1OC` (configuration not stated), in assay [1], the result was inactive. Besides, the inhibition result in assay [2] is “inactive”.
`COC1=CC2(C=C(OC)C1=O)C(c1ccccc1)=C(c1ccc(CO)cc1)C(=O)N2C(C(=O)NC1CCCCC1)c1ccc(OC)c(OC)c1OC` (configuration not stated): the result in assay [1] was inactive. Besides, the inhibition result in assay [2] was “inactive”.
Take `COc1cc(NC2(c3cc(F)cc(F)c3)C(=O)N(C3CCCCC3)C(=O)/C2=C/c2ccccc2)cc(OC)c1OC` (configuration not stated): the result in assay [1] was inactive. Besides, in assay [2], the inhibition result is “inactive”.
As for `N#Cc1ccc([C@@H]2C(=O)N[C@@H]3CC(=O)C=C[C@@]34C(c3ccccc3)=CC(=O)N24)cc1`, the result in assay [1] was inactive.
Turning to `O=C1C=CC2(C=C1)C(c1ccccc1)=C(I)C(=O)N2C(C(=O)NC1CCCCC1)c1cccc([N+](=O)[O-])c1` (configuration not stated), in assay [1], the outcome was inactive. Besides, the inhibition result in assay [2] is “inactive”.
Turning to `COc1ccc(N2C(=O)/C(=C\c3ccccc3)C2(C(=O)NC(C)(C)C)c2cc(C)cc(C)c2)cc1` (configuration not stated), the result in assay [1] was inactive. In addition, in assay [2], the inhibition result is “inactive”.
`COc1ccc(C2(Nc3cc(OC)c(OC)c(OC)c3)C(=O)N(C3CCCCC3)C(=O)/C2=C/c2ccccc2)cc1` (configuration not stated): the outcome in assay [1] was inactive. Besides, in assay [2], the inhibition entry was “inactive”.
As for `COc1ccc(N2C(=O)/C(=C\c3ccccc3)C2(C(=O)NC(C)(C)C)c2ccc(C(F)(F)F)cc2)cc1` (configuration not stated), the outcome in assay [1] was inactive. Further, the inhibition result in assay [2] was “inactive”.
Take `O=C1C=C[C@]23C(c4ccccc4)=CC(=O)N2[C@H](c2ccc(Br)cc2)C(=O)N[C@@H]3C1`: the result in assay [1] was inactive. In addition, in assay [2], the inhibition entry was “inactive”.
Consider `COc1ccc(N2C(=O)/C(=C\c3ccccc3)C2(C(=O)NC(C)(C)C)c2cc(F)cc(F)c2)cc1` (configuration not stated), for which the outcome in assay [1] was inactive.
